Measured values as given in ChEMBL document CHEMBL6096640, “Discovery of novel thiosemicarbazone-acridine targeting butyrylcholinesterase with antioxidant, metal complexing and neuroprotector abilities as potential treatment of Alzheimer's disease: In vitro, in vivo, and in silico studies” (Eur J Med Chem, 2025).
The source made the active and inactive calls. No cut-off for these calls is given here.

Assays:
Acetylcholinesterase [1] = biological target: T1, Acetylcholinesterase (Electrophorus electricus, UniProt O42275)
Description: Inhibition of electric eel AChE using acetylthiocholine iodide as substrate preincubated for 10 mins followed by substrate addition by Ellman's method

Cholinesterase [2] = biological target: T2, Cholinesterase (Equus caballus, UniProt P81908)
Description: Inhibition of equine serum BChE using butyrylthiocholine iodide as substrate preincubated for 10 mins followed by substrate addition by Ellman's method

[3] = biological target: Cholinesterase (Equus caballus) (UniProt P81908); test: Inhibition of equine serum BChE using butyrylthiocholine iodide as substrate at 10 uM preincubated for 10 mins followed by substrate addition by Ellman's method relative to control
[4] = Antioxidant activity of the compound assessed as DPPH radical scavenging activity at 100 uM incubated under light for 30 mins by spectrophotometric analysis relative to control; format: functional
[5] = Antioxidant activity of the compound assessed as DPPH radical scavenging activity at 10 uM incubated under light for 30 mins by spectrophotometric analysis relative to control; format: functional
[6] = Neurotoxicity against human SH-SY5Y cells assessed as cell viability at 12.5 to 50 uM relative to control; format: toxicity, cell-based; settings: dose 12.5-50 µM, read-out: Activity
[7] = Neurotoxicity against human SH-SY5Y cells assessed as reduction in cell viability at <= 50 uM; format: toxicity, cell-based
Cholinesterase [8] = biological target: T2, Cholinesterase; test: Non-competitive inhibition of equine serum BChE using butyrylthiocholine iodide as substrate preincubated for 10 mins followed by substrate addition by Lineweaver-Burk plot analysis
[9] = biological target: Acetylcholinesterase (Electrophorus electricus) (UniProt O42275); test: Inhibition of electric eel AChE using acetylthiocholine iodide as substrate at 10 uM preincubated for 10 mins followed by substrate addition by Ellman's method relative to control
[10] = biological target: Acetylcholinesterase (Electrophorus electricus) (UniProt O42275); test: Non-competitive inhibition of electric eel AChE using acetylthiocholine iodide as substrate assessed as decreased Vmax with constant Km by Ellman's method based Lineweaver-Burk plot analysis
Cholinesterase [11] = biological target: T2, Cholinesterase; test: Competitive inhibition of equine serum BChE using butyrylthiocholine iodide as substrate preincubated for 10 mins followed by substrate addition by Lineweaver-Burk plot analysis
Acetylcholinesterase [12] = biological target: T1, Acetylcholinesterase; test: Non-competitive inhibition of electric eel AChE using acetylthiocholine iodide as substrate preincubated for 10 mins followed by substrate addition by Lineweaver-Burk plot analysis
in vitro = settings: human
Description: Neurotoxicity against human SH-SY5Y cells assessed as cell viability at 50 uM relative to control

Mus musculus [13] = test: Antialzheimer activity against scopolamine-induced amnesia Swiss mouse model assessed as number of crossings at 1 uM, icv by open field test; format: functional, organism-based
[14] = Toxicity in Swiss mouse assessed as novel […] memory at 1 uM, icv by novel object recognition test; settings: in vivo, icv_or_intrathecal
SH-SY5Y = test: Neuroprotective activity against H2O2-induced cell death in human SH-SY5Y cells assessed as cell viability at 3.125 to 12.5 uM preincubated for 24 hrs followed by H2O2 addition and measured after 2 hrs by MTT assay; format: functional, cell-based; settings: dose 3.125-12.5 µM, time 26.0 hrs
Mus musculus [15] = test: Antialzheimer activity against scopolamine-induced amnesia Swiss mouse model assessed as increase in exploration time at 1 uM, icv by novel object recognition test; format: functional, organism-based
Mus musculus [16] = test: Antialzheimer activity against scopolamine-induced amnesia Swiss mouse model assessed as sign of innate preference for objects at 1 uM, icv by novel object recognition test; format: functional, organism-based
Acetylcholinesterase [17] = biological target: T1, Acetylcholinesterase; test: Competitive inhibition of electric eel AChE using acetylthiocholine iodide as substrate at 11 uM preincubated for 10 mins followed by substrate addition by Lineweaver-Burk plot analysis
[18] = biological target: Acetylcholinesterase (Electrophorus electricus) (UniProt O42275); test: Mixed-type inhibition of electric eel AchE using acetylthiocholine iodide as substrate assessed as decrease in Vmax with increase in Km preincubated for 10 mins followed by substrate addition by Lineweaver-Burk plot analysis
Cholinesterase [19] = biological target: T2, Cholinesterase; test: Competitive inhibition of equine serum BChE using butyrylthiocholine iodide as substrate at 3 uM preincubated for 10 mins followed by substrate addition by Lineweaver-Burk plot analysis
[20] = biological target: Cholinesterase (Equus caballus) (UniProt P81908); test: Mixed-type inhibition of equine serum BChE using butyrylthiocholine iodide as substrate assessed as decrease in Vmax with increase in Km preincubated for 10 mins followed by substrate addition by Lineweaver-Burk plot analysis

Cholinesterase (Equus caballus), sequence (P81908 whole entry): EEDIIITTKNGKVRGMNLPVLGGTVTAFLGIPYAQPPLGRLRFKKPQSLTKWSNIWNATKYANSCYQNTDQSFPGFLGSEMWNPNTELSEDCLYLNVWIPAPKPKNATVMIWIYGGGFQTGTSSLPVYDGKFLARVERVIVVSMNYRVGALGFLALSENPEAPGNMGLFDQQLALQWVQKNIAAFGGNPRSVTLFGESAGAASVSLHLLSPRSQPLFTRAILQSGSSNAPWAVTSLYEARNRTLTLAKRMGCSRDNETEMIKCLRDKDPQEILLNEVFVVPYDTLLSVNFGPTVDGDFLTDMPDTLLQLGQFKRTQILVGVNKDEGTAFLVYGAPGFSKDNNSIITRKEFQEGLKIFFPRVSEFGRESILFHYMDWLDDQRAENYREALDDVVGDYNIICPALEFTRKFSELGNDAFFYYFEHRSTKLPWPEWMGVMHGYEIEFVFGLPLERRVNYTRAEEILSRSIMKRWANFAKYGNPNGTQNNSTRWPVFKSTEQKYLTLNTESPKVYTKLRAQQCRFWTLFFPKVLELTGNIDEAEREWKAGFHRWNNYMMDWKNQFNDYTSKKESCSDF
T2 sequence (P81908 whole entry): as above
Acetylcholinesterase (Electrophorus electricus), sequence (O42275 24-633 limits assumed): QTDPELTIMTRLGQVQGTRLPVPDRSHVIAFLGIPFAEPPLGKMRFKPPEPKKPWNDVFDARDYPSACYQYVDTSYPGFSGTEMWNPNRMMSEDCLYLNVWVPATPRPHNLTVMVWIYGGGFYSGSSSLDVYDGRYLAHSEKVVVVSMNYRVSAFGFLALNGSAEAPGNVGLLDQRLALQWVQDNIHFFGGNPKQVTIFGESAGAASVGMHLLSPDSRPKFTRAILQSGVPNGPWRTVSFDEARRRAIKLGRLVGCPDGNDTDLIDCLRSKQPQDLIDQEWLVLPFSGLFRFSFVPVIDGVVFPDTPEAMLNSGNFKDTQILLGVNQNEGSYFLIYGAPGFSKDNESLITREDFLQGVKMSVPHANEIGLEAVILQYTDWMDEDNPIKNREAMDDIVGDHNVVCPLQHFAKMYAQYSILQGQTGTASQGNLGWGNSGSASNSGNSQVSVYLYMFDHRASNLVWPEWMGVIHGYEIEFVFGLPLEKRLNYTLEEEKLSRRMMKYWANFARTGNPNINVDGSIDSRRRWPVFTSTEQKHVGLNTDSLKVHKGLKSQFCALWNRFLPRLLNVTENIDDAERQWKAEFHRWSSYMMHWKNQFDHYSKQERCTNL
T1 sequence (O42275 whole entry): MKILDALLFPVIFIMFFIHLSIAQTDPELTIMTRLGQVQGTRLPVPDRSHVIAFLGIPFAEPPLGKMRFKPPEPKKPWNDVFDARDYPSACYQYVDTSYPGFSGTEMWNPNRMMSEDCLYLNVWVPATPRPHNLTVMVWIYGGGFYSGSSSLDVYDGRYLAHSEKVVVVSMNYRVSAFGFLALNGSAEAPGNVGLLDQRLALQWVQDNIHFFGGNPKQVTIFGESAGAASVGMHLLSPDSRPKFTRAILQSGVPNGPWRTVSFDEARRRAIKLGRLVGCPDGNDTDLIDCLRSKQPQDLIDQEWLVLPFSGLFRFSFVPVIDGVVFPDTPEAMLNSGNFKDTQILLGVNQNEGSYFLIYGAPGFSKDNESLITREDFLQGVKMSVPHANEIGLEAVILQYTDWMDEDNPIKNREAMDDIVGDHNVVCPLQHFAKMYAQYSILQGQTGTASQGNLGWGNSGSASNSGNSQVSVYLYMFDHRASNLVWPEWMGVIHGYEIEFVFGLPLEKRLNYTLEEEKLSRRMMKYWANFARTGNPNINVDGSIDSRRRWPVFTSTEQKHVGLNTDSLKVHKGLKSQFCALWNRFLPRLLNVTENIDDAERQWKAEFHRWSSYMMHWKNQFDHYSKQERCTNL

| SMILES | IC50 (Acetylcholinesterase [1]) | IC50 (Cholinesterase [2]) | inhibition [3] | Activity [4] | also measured |
| --- | --- | --- | --- | --- | --- |
| CN(C)c1ccc(/C=N/NC(=S)Nc2c3ccccc3nc3ccccc23)cc1 | 7.6 µM | 1.77 µM | 83% | – | – |
| S=C(N/N=C/c1ccc(Cl)cc1)Nc1c2ccccc2nc2ccccc12 | 10.1 µM | 2.19 µM | 83% | – | – |
| Cc1ccc(/C=N/NC(=S)Nc2c3ccccc3nc3ccccc23)c(O)c1 | 11.3 µM | 3.19 µM | 83% | 28.7% | – |
| S=C(N/N=C/c1cccnc1)Nc1c2ccccc2nc2ccccc12 | – | – | 83% | 15.5% | – |
| S=C(N/N=C/c1cccs1)Nc1c2ccccc2nc2ccccc12 | 34.6 µM | 2.45 µM | 83% | 41.5% | – |
| Oc1ccccc1/C=N/NC(=S)Nc1c2ccccc2nc2ccccc12 | 10.8 µM | 3.13 µM | 83% | 15.8% | – |
| Oc1cccc(/C=N/NC(=S)Nc2c3c(nc4ccccc24)CCCC3)c1 | – | 3.03 µM | – | 12.1% | – |
| Cc1ccc(/C=N/NC(=S)Nc2c3ccccc3nc3ccccc23)cc1 | 2.78 µM | 1.54 µM | 83% | – | – |
| O=c1c(O)c(-c2ccc(O)c(O)c2)oc2cc(O)cc(O)c12 | – | – | – | – | Activity [5]: 51.7% |
| Fc1ccc(/C=N/NC(=S)Nc2c3ccccc3nc3ccccc23)cc1 | 12.8 µM | 1.35 µM | 83% | 44.3% | viability at 50 µM [6]: ≤ 70% |
| S=C(N/N=C/c1c[nH]c2ccccc12)Nc1c2ccccc2nc2ccccc12 | 9.39 µM | 1.68 µM | 83% | 23.8% | – |
| Oc1ccc(/C=N/NC(=S)Nc2c3ccccc3nc3ccccc23)cc1 | 11.5 µM | 1.73 µM | 83% | – | – |
| S=C(N/N=C/c1ccc(Cl)cc1Cl)Nc1c2ccccc2nc2ccccc12 | 6.11 µM | 1.06 µM | 83% | – | Activity [7]: Non-toxic |
| S=C(N/N=C/c1ccccc1)Nc1c2ccccc2nc2ccccc12 | 2.47 µM | 0.71 µM | 83% | 37.9% | Activity [7]: Non-toxic; Ki (Cholinesterase [8]): 1.68 µM; inhibition [9]: 87%; inhibition [10]: Active; Ki (Cholinesterase [11]): 0.72 µM; Ki (Acetylcholinesterase [12]): 1.35 µM |
| O=[N+]([O-])c1ccc(/C=N/NC(=S)Nc2c3ccccc3nc3ccccc23)cc1 | 8.64 µM | 0.89 µM | 83% | – | Activity [7]: Non-toxic; Ki (Cholinesterase [8]): 0.53 µM; inhibition [10]: Active; Ki (Cholinesterase [11]): 0.2 µM; Ki (Acetylcholinesterase [12]): 2.97 µM |
| COc1ccc(/C=N/NC(=S)Nc2c3ccccc3nc3ccccc23)cc1O | 43.3 µM | 3.3 µM | 83% | 41.2% | – |
| COc1ccc(/C=N/NC(=S)Nc2c3ccccc3nc3ccccc23)cc1 | 6.2 µM | 1.04 µM | 83% | – | Activity [7]: Non-toxic |
| Cc1[nH]c2ccccc2c1/C=N/NC(=S)Nc1c2ccccc2nc2ccccc12 | 8.57 µM | 2.01 µM | 83% | 61% | – |
| Oc1cccc(/C=N/NC(=S)Nc2c3ccccc3nc3ccccc23)c1 | 22 µM | 2.28 µM | 83% | – | – |
| CC(C)(C)c1cc(/C=N/NC(=S)Nc2c3ccccc3nc3ccccc23)cc(C(C)(C)C)c1O | 10.5 µM | 1.15 µM | 83% | 69% | viability at 50 µM (in vitro; SH-SY5Y cells): 90%; Activity (Mus musculus [13]): inactive; viability at 50 µM [6]: ≤ 70%; Activity [14]: Toxic; Activity (SH-SY5Y): Active; Activity (Mus musculus [15]): Active; Activity (Mus musculus [16]): inactive |
| S=C(N/N=C/c1ccc(Br)cc1)Nc1c2ccccc2nc2ccccc12 | 9.79 µM | 3.18 µM | 83% | – | – |
| S=C(N/N=C/c1ccco1)Nc1c2ccccc2nc2ccccc12 | 28 µM | 4.4 µM | 83% | 43.9% | – |
| S=C(N/N=C/c1ccccc1)Nc1c2c(nc3ccccc13)CCCC2 | 13.6 µM | 5.38 µM | – | 32.2% | Ki (Acetylcholinesterase [17]): 1.66 µM; Activity [18]: Active; Ki (Cholinesterase [8]): 3.63 µM; Ki (Cholinesterase [19]): 1.41 µM; Ki (Acetylcholinesterase [12]): 9.82 µM; Activity [20]: Active |
| COc1cc2c(cc1OC)C(=O)C(CC1CCN(Cc3ccccc3)CC1)C2 (stereo not drawn) [DONEPEZIL] | – | – | – | – | viability at 50 µM (in vitro; sh-sy5y): 80% |
